According to patent US20250197393A1, “INTEGRIN INHIBITOR AND USES THEREOF” (Pliant Therapeutics, Inc., priority 2023, published 2025):
Converted amounts (≈) assume the structure as drawn.

Legend:
Assay type in all cases: physicochemical
[1] = Water activity experiments in MeOH/water (relative stability of hydrate Pattern A and hydrate Pattern B); details: for water activity (a.w.) at which the pattern was obtained: methanol/water
Procedure: The relative stability of the hydrate Pattern A and the hydrate Pattern B was investigated using water activity experiments in MeOH/water systems. About 5 mg of (S)-4-((2-methoxyethyl)(4-(5,6,7,8-tetrahydro-1,8-naphthyridin-2-yl)butyl)amino)-2-(quinazolin-4-ylamino)butanoic acid L-tartaric acid cocrystal Pattern A and 5 mg of (S)-4-((2-methoxyethyl)(4-(5,6,7,8-tetrahydro-1,8-naphthyridin-2-yl)butyl)amino)-2-(quinazolin-4-ylamino)butanoic acid L-tartaric acid cocrystal Pattern B were added to 0.1-0.5 mL saturated solutions of the methanol/water system. Obtained suspensions were stirred at 5° C., 25° C. and 50° C. for up to 21 days, respectively. Solid parts (wet cakes) were isolated by centrifugation filtration and investigated by XRPD.

[2] = Compression study; details: 5 minutes; for XRPD after compression: hydraulic press
Procedure: About 20 mg of (S)-4-((2-methoxyethyl)(4-(5,6,7,8-tetrahydro-1,8-naphthyridin-2-yl)butyl)amino)-2-(quinazolin-4-ylamino)butanoic acid L-tartaric acid cocrystal Pattern A was compressed for 5 minutes under 2 MPa, 5 MPa and 10 MPa with a hydraulic press. Potential form change and degree of crystallinity were evaluated by XRPD.

[3] = Solubility at 37° C. in aqueous and biorelevant media; details: for solubility at 2 h / solubility at 24 h: 37 °C, thermodynamic from solid; for solubility at 2 h / solubility at 24 h / Solubility (mg/ mL) 2 h / Solubility (mg/ mL) 24 h: target 250 mg/mL (in free form); for pH of supernatant at 24 h / Solubility (mg/ mL) 2 h / Solubility (mg/ mL) 24 h: listed as L-Tartaric acid cocrystal Pattern A, hydrate
Procedure: To prepare the samples of (S)-4-((2-methoxyethyl)(4-(5,6,7,8-tetrahydro-1,8-naphthyridin-2-yl)butyl)amino)-2-(quinazolin-4-ylamino)butanoic acid L-tartaric acid cocrystal Pattern A, 80.6 mg was weighed into a 2 mL glass vial. Next, 0.18 mL of solubility medium was added. The salt amount used is equivalent to 45 mg of the amorphous free form. Obtained suspensions/solutions were stirred at 37° C. at 400 rpm and sampled at 2 h and at 24 h. The samples were centrifuged at 37° C. at 14,000 rpm for 5 min. Supernatants were analyzed by HPLC and pH meter for solubility and pH value, respectively. […]

[4] = Bulk stability of solid under temperature/humidity stress (HPLC, appearance, XRPD); details: 40° C./75% RH in an open container, 4 weeks; listed as L-tartaric acid cocrystal Pattern A
[5] = Wet granulation simulation
Procedure: Water or ethanol was added dropwise to about 20 mg of (S)-4-((2-methoxyethyl)(4-(5,6,7,8-tetrahydro-1,8-naphthyridin-2-yl)butyl)amino)-2-(quinazolin-4-ylamino)butanoic acid L-tartaric acid cocrystal Pattern A until the sample was wetted sufficiently. The wet sample was ground gently using a mortar and pestle. Post granulation sample was dried under ambient conditions for 30 min. The potential form change and degree of crystallinity were evaluated by XRPD.

[6] = Hygroscopicity by dynamic vapor sorption (DVS)
Procedure: Dynamic vapor sorption of Pattern A was studied using a Surface Measurement Systems (SMS) Intrinsic instrument. Total gas flow was 200 sccm. The oven temperature was 25° C. Water was used as the solvent, in a cycle of 40-95-0-95-40% RH. The stage step was 10% RH and equilibrium was within 0.002 dm/dt (%/min) (minimum dm/dt stability duration: 60 min; maximum dm/dt stage time: 360 min). The sample mass was about 5-50 mg.
The water sorption and desorption behavior of (S)-4-((2-methoxyethyl)(4-(5,6,7,8-tetrahydro-1,8-naphthyridin-2-yl)butyl)amino)-2-(quinazolin-4-ylamino)butanoic acid L-tartaric acid cocrystal Pattern A was investigated by DVS at 25° C. with a cycle of 40-95-0-95-40% RH. XRPD was measured after the DVS test to determine form change. […] It dehydrated in 10% RH and below.

[7] = FaSSGF (fasted state simulated gastric fluid), pH 1.6, fassgf or other biorelevant, FaSSGF, pH 1.6, 37° C.
[8] = FeSSIF-v1 (fed state simulated intestinal fluid), pH 5, fessif, FeSSIF-v1, pH 5.0, 37° C.
[9] = pH 1.2 HCl buffer, pH 1.2, simulated gastric fluid
[10] = pH 4.5 acetate buffer (50 mM), pH 4.5, aqueous buffer
[11] = pH 6.8 phosphate buffer (50 mM), 37° C.
[12] = 10% relative humidity at 25° C.
[13] = 20% relative humidity at 25° C.
[14] = 30% relative humidity at 25° C.
[15] = 40% relative humidity at 25° C.
[16] = 50% relative humidity at 25° C.
[17] = 60% relative humidity at 25° C.
[18] = 70% relative humidity at 25° C.
[19] = 80% relative humidity at 25° C.
[20] = 90% relative humidity at 25° C.
[21] = 95% relative humidity at 25° C.

thermodynamic stability based on water activity experiments ([1]; 0, 0.2, 0.4, 0.6, 0.8 and 1.0 water activity): thermodynamically stable
water activity (a.w.) at which the pattern was obtained ([1]; 5° C.): ≤ 0.8
water activity (a.w.) at which the pattern was obtained ([1]; 25° C.): ≤ 0.8
water activity (a.w.) at which the pattern was obtained ([1]; 50° C.): ≤ 1.0
degree of crystallinity after compression (XRPD) ([2]; 2 MPa, 5 MPa and 10 MPa): slight decrease in crystallinity
form change after compression (XRPD) ([2]; 2 MPa, 5 MPa and 10 MPa): no form change
XRPD after compression ([2]; 2 MPa): Pattern A
XRPD after compression ([2]; 5 MPa): Pattern A
XRPD after compression ([2]; 10 MPa): Pattern A
solubility at 2 h [3, 7]: 206 mg/mL (≈ 419 mM)
solubility at 24 h [3, 7]: 224 mg/mL (≈ 455 mM)
pH of supernatant at 24 h ([3]; FaSSGF, pH 1.6, 37° C.): (1.6)
Solubility (mg/ mL) 2 h ([3]; FaSSIF-v1, pH 6.5, 37° C.): 84.1 mg/mL (≈ 171 mM)
Solubility (mg/ mL) 24 h ([3]; FaSSIF-v1, pH 6.5, 37° C.): 63.2 mg/mL (≈ 128 mM)
pH of supernatant at 24 h ([3]; FaSSIF-v1, pH 6.5, 37° C.): (6.6)
solubility at 2 h [3, 8]: 203 mg/mL (≈ 413 mM)
solubility at 24 h [3, 8]: 217 mg/mL (≈ 440 mM)
pH of supernatant at 24 h ([3]; FeSSIF-v1, pH 5.0, 37° C.): (5.0)
pH of supernatant at 24 h ([3]; Water, 37° C.): (3.2)
pH of supernatant at 24 h ([3]; pH 1.2 HCl buffer, 37° C.): (1.4)
solubility at 2 h [3, 9]: 215 mg/mL (≈ 436 mM)
solubility at 24 h [3, 9]: 222 mg/mL (≈ 451 mM)
pH of supernatant at 24 h ([3]; pH 4.5 acetate buffer (50 mM), 37° C.): (4.4)
solubility at 2 h [3, 10]: 214 mg/mL (≈ 435 mM)
solubility at 24 h [3, 10]: 220 mg/mL (≈ 448 mM)
Solubility (mg/ mL) 2 h [3, 11]: 28.4 mg/mL (≈ 57.7 mM)
Solubility (mg/ mL) 24 h [3, 11]: 56.4 mg/mL (≈ 114 mM)
pH of supernatant at 24 h [3, 11]: (6.8)
solubility at 2 h ([3]; water): 207 mg/mL (≈ 421 mM)
solubility at 24 h ([3]; water): 218 mg/mL (≈ 442 mM)
purity decrease [4]: 2.1%
XRPD after wet granulation ([5]; Granulation solvent Ethanol): Pattern A
Comments (crystallinity after wet granulation) ([5]; Granulation solvent Water): Slight decrease in crystallinity
XRPD after wet granulation ([5]; Granulation solvent Water): Pattern A
1st desorp. Weight % change ([6]; 0% relative humidity at 25° C.): 0.0%
2nd sorp. Weight % change ([6]; 0% relative humidity at 25° C.): 0.0%
1st desorp. Weight % change [6, 12]: 5.2%
2nd sorp. Weight % change [6, 12]: 4.7%
1st desorp. Weight % change [6, 13]: 7.4%
2nd sorp. Weight % change [6, 13]: 7.1%
1st desorp. Weight % change [6, 14]: 8.3%
2nd sorp. Weight % change [6, 14]: 8.0%
1st desorp. Weight % change [6, 15]: 8.9%
1st sorp. Weight % change [6, 15]: 8.5%
2nd desorp. Weight % change [6, 15]: 8.9%
2nd sorp. Weight % change [6, 15]: 8.7%
1st desorp. Weight % change [6, 16]: 9.4%
1st sorp. Weight % change [6, 16]: 9.0%
2nd desorp. Weight % change [6, 16]: 9.4%
2nd sorp. Weight % change [6, 16]: 9.2%
1st desorp. Weight % change [6, 17]: 9.8%
1st sorp. Weight % change [6, 17]: 9.6%
2nd desorp. Weight % change [6, 17]: 9.9%
2nd sorp. Weight % change [6, 17]: 9.7%
1st desorp. Weight % change [6, 18]: 10.4%
1st sorp. Weight % change [6, 18]: 10.1%
2nd desorp. Weight % change [6, 18]: 10.4%
2nd sorp. Weight % change [6, 18]: 10.2%
1st desorp. Weight % change [6, 19]: 11.1%
1st sorp. Weight % change [6, 19]: 10.7%
2nd desorp. Weight % change [6, 19]: 11.1%
2nd sorp. Weight % change [6, 19]: 10.9%
1st desorp. Weight % change [6, 20]: 12.6%
1st sorp. Weight % change [6, 20]: 12.2%
2nd desorp. Weight % change [6, 20]: 12.6%
2nd sorp. Weight % change [6, 20]: 12.1%
1st desorp. Weight % change [6, 21]: 18.7%
1st sorp. Weight % change [6, 21]: 18.7%
2nd desorp. Weight % change [6, 21]: 16.1%
2nd sorp. Weight % change [6, 21]: 16.1%
XRPD following the DVS experiments ([6]; after cycle 40-95-0-95-40% RH, 25° C.): no form change
hygroscopicity ([6]; at 70% RH and below, 25° C.): slightly hygroscopic
water uptake ([6]; from 40% RH to 70% RH, 25° C.): about 1.6%
water uptake ([6]; from 80% RH to 95% RH, 25° C.): about 8.0%
behaviour at low humidity ([6]; in 10% RH and below, 25° C.): dehydrated
hygroscopicity ([6]; in 80% RH and above, 25° C.): moderately hygroscopic
water loss on dehydration ([6]; relative humidity below 10% RH, water absorbed back at 10% RH and above): about 5%
SMILES: COCCN(CCCCc1ccc2c(n1)NCCC2)CC[C@H](Nc1ncnc2ccccc12)C(=O)O [Pattern A, (S)-4-((2-methoxyethyl)(4-(5,6,7,8-tetrahydro-1,8-naphthyridin-2-yl)butyl)amino)-2-(quinazolin-4-ylamino)butanoic acid]
